Here are results for ten molecules from patent publication US20260256925A1, “INDAZOLE DERIVATIVES AS ESTROGEN RECEPTOR DEGRADERS” (REGENTS OF THE UNIVERSITY OF MICHIGAN, priority 2022, published 2026).

In one assay the target is T1, ER (Homo sapiens, UniProt P03372).
T1 construct: endogenous in cells; probably T47D or MCF-7
T1 sequence (P03372 1-595): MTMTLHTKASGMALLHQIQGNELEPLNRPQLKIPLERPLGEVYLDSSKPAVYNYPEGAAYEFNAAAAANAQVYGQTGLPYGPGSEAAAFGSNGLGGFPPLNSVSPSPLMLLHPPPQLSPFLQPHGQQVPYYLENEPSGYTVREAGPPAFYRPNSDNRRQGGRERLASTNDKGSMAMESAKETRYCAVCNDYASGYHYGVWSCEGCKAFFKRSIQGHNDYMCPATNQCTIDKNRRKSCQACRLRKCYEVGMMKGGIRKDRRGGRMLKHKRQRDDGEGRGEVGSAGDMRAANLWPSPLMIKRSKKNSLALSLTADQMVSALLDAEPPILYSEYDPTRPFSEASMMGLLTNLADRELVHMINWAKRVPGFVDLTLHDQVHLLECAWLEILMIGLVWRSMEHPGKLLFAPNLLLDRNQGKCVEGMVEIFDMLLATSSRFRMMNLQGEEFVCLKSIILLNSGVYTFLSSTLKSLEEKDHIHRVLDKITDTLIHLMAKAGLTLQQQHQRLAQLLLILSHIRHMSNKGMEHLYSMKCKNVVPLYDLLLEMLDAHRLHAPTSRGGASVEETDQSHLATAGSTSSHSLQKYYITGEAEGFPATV
Kind of assay: In-cell western blot analysis, relative ER percentage (compounds B1-B126). Type of assay: cell-based. The settings on record: ER degradation, 16 hours, read-out: ICW DC50. In a few lines: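 Readout was a two-colour infrared in-cell western of formaldehyde-fixed cells after 16 h compound exposure at 0.5% DMSO, with 40,000 or 10,000 cells/well plated the previous night. Relative ER percentage compares treated wells against untreated/DMSO-treated wells taken as 100%.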

Assay [1] can be described thus: Cell growth assay, WST-8 (compounds B1-B126). In kind it is cell-based. The settings on record: 96 h; T47D cell line, WST-8, 4 days; read-out: Cell growth inhibition in T47D cell line IC50. In a few lines:
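Read-out is WST-8 absorbance at 450 nm (2.5 h, 37° C) as a fraction of vehicle control, from three separate repeats. Compound exposure lasted 4 days, starting one day after plating 1500 cells/well.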
(In general: Tetrazolium assays rely on reduction of a dye to a coloured formazan, in cell work by metabolically active cells.)

Where only a bound is given, the exact number is not on record here.

As a reminder, the DC50 is the concentration giving 50% degradation. In general, IC50 refers to the concentration that inhibits the measured activity by half. Regarding `C[C@@H]1Cc2c(ccc3[nH]ncc23)[C@@H](c2ccc(N3CCC4(CC3)CC(CN3CCN5c6cc7c(cc6OC[C@@H]5C3)C(=O)N(C3CCC(=O)NC3=O)C7)CO4)cn2)N1CC(F)(F)F` (stereo partly drawn) [Compound B94, 3-((4aS)-3-((8-(6-((6S,8R)-8-methyl-7-(2,2,2-trifluoroethyl)-6,7,8,9-tetrahydro-3H-pyrazolo[4,3-f]isoquinolin-6-yl)pyridin-3-yl)-1-oxa-8-azaspiro[4.5]decan-3-yl)methyl)-8-oxo-1,2,3,4,4a,5,8,10-octahydro-9H-pyrazino[1′,2′:4,5][1,4]oxazino[2,3-f]isoindol-9-yl)piperidine-2,6-dione], the DC50 on ER is under 10 nM. In addition, the IC50 in assay [1] is under 1 nM.
As for `C[C@@H]1Cc2c(ccc3[nH]ncc23)[C@@H](c2ccc(N3CCC4(CC3)CC(CN3CCC5(CC3)COc3c5ccc5c3CN(C3CCC(=O)NC3=O)C5=O)CO4)cn2)N1CC(F)(F)F` (stereo partly drawn) [Compound B95, 3-(1′-((8-(6-((6S,8R)-8-methyl-7-(2,2,2-trifluoroethyl)-6,7,8,9-tetrahydro-3H-pyrazolo[4,3-f]isoquinolin-6-yl)pyridin-3-yl)-1-oxa-8-azaspiro[4.5]decan-3-yl)methyl)-6-oxo-6,8-dihydro-2H,7H-spiro[furo[2,3-e]isoindole-3,4′-piperidin]-7-yl)piperidine-2,6-dione], the DC50 at ER was over 100 nM. In addition, in assay [1], the concentration for half-maximal inhibition (IC50) is under 1 nM.
In the same order, the values of `C[C@@H]1Cc2c(ccc3[nH]ncc23)[C@@H](c2ccc(N3CC4(CC(CN5CCN6c7ccc8c(c7OC[C@H]6C5)CN(C5CCC(=O)NC5=O)C8=O)CO4)C3)cn2)N1CC(F)(F)F` (stereo partly drawn) [Compound B96, 3-((5aR)-7-((2-(6-((6S,8R)-8-methyl-7-(2,2,2-trifluoroethyl)-6,7,8,9-tetrahydro-3H-pyrazolo[4,3-f]isoquinolin-6-yl)pyridin-3-yl)-5-oxa-2-azaspiro[3.4]octan-7-yl)methyl)-1-oxo-1,3,5,5a,6,7,8,9-octahydro-2H-pyrazino[1′,2′:4,5][1,4]oxazino[2,3-e]isoindol-2-yl)piperidine-2,6-dione] are under 10 nM and under 1 nM.
Turning to `C[C@@H]1Cc2c(ccc3[nH]ncc23)[C@@H](c2ccc(N3CC4(CC(CN5CCN6c7cc8c(cc7OC[C@@H]6C5)C(=O)N(C5CCC(=O)NC5=O)C8)CO4)C3)cn2)N1CC(F)(F)F` (stereo partly drawn) [Compound B97, 3-((4aS)-3-((2-(6-((6S,8R)-8-methyl-7-(2,2,2-trifluoroethyl)-6,7,8,9-tetrahydro-3H-pyrazolo[4,3-f]isoquinolin-6-yl)pyridin-3-yl)-5-oxa-2-azaspiro[3.4]octan-7-yl)methyl)-8-oxo-1,2,3,4,4a,5,8,10-octahydro-9H-pyrazino[1′,2′:4,5][1,4]oxazino[2,3-f]isoindol-9-yl)piperidine-2,6-dione], on ER, the DC50 is under 10 nM. Besides, the IC50 in assay [1] was under 1 nM.
For the molecule `C[C@@H]1Cc2c(ccc3[nH]ncc23)[C@@H](c2c(F)cc(N3CC4(CN(CC(=O)N5CCN6c7ccc8c(c7OC[C@H]6C5)CN(C5CCC(=O)NC5=O)C8=O)C4)C3)cc2F)N1CC(F)F` (stereo partly drawn) [Compound B98, 3-((R)-7-(2-(6-(4-((6S,8R)-7-(2,2-difluoroethyl)-8-methyl-6,7,8,9-tetrahydro-3H-pyrazolo[4,3-f]isoquinolin-6-yl)-3,5-difluorophenyl)-2,6-diazaspiro[3.3]heptan-2-yl)acetyl)-1-oxo-1,3,5,5a,6,7,8,9-octahydro-2H-pyrazino[1′,2′:4,5][1,4]oxazino[2,3-e]isoindol-2-yl)piperidine-2,6-dione], at ER, the DC50 was under 10 nM. The IC50 in assay [1] is under 1 nM.
In the same order, the values of `C[C@@H]1Cc2c(ccc3[nH]ncc23)[C@@H](c2c(F)cc(N3CCC(CN4CCN5c6c(ccc7c6CN(C6CCC(=O)NC6=O)C7=O)OC[C@@H]5C4)CC3)cc2F)N1CC(F)F` (stereo partly drawn) [Compound B99, 3-((S)-9-((1-(4-((6S,8R)-7-(2,2-difluoroethyl)-8-methyl-6,7,8,9-tetrahydro-3H-pyrazolo[4,3-f]isoquinolin-6-yl)-3,5-difluorophenyl)piperidin-4-yl)methyl)-3-oxo-1,3,7,7a,8,9,10,11-octahydro-2H-pyrazino[1′,2′:4,5][1,4]oxazino[3,2-e]isoindol-2-yl)piperidine-2,6-dione] are 10 to 100 nM and over 10 nM.
Take `C[C@@H]1Cc2c(ccc3[nH]ncc23)[C@@H](c2c(F)cc(NC3CN(C(=O)CN4CCN5c6ccc7c(c6OC[C@H]5C4)CN(C4CCC(=O)NC4=O)C7=O)C3)cc2F)N1CC(F)F` (stereo partly drawn) [Compound B100, 3-((R)-7-(2-(3-((4-((6S,8R)-7-(2,2-difluoroethyl)-8-methyl-6,7,8,9-tetrahydro-3H-pyrazolo[4,3-f]isoquinolin-6-yl)-3,5-difluorophenyl)amino)azetidin-1-yl)-2-oxoethyl)-1-oxo-1,3,5,5a,6,7,8,9-octahydro-2H-pyrazino[1′,2′:4,5][1,4]oxazino[2,3-e]isoindol-2-yl)piperidine-2,6-dione]: at ER, the DC50 is 10 to 100 nM. The IC50 in assay [1] was 1 to 10 nM.
With `C[C@@H]1Cc2c(ccc3[nH]ncc23)[C@@H](c2c(F)cc(NC3CN(CC(=O)N4CCN5c6ccc7c(c6OC[C@H]5C4)CN(C4CCC(=O)NC4=O)C7=O)C3)cc2F)N1CC(F)F` (stereo partly drawn) [Compound B101, 3-((R)-7-(2-(3-((4-((6S,8R)-7-(2,2-difluoroethyl)-8-methyl-6,7,8,9-tetrahydro-3H-pyrazolo[4,3-f]isoquinolin-6-yl)-3,5-difluorophenyl)amino)azctidin-1-yl)acetyl)-1-oxo-1,3,5,5a,6,7,8,9-octahydro-2H-pyrazino[1′,2′:4,5][1,4]oxazino[2,3-e]isoindol-2-yl)piperidine-2,6-dione], at ER, the DC50 was under 10 nM. Also, in assay [1], the IC50 is 1 to 10 nM.
In the same order, the values of `C[C@@H]1Cc2c(ccc3[nH]ncc23)[C@@H](c2ccc(N3CCC4(CC3)CC(CN3CCN5c6ccc7c(c6OC[C@H]5C3)CN(C3CCC(=O)NC3=O)C7=O)C4)cn2)N1CC(F)(F)F` (stereo partly drawn) [Compound B106, 3-((R)-7-((7-(6-((6S,8R)-8-methyl-7-(2,2,2-trifluoroethyl)-6,7,8,9-tetrahydro-3H-pyrazolo[4,3-f]isoquinolin-6-yl)pyridin-3-yl)-7-azaspiro[3.5]nonan-2-yl)mcthyl)-1-oxo-1,3,5,5a,6,7,8,9-octahydro-2H-pyrazino[1′,2′:4,5][1,4]oxazino[2,3-e]isoindol-2-yl)piperidine-2,6-dione] are under 10 nM and under 1 nM.
As for `C[C@@H]1Cc2c(ccc3[nH]ncc23)[C@@H](c2ccc(N3CCC4(CC3)CC(CN3CCN5c6ccc7c(c6OC[C@@H]5C3)CN(C3CCC(=O)NC3=O)C7=O)C4)cn2)N1CC(F)(F)F` (stereo partly drawn) [Compound B107, 3-((S)-7-((7-(6-((6S,8R)-8-methyl-7-(2,2,2-trifluoroethyl)-6,7,8,9-tetrahydro-3H-pyrazolo[4,3-f]isoquinolin-6-yl)pyridin-3-yl)-7-azaspiro[3.5]nonan-2-yl)methyl)-1-oxo-1,3,5,5a,6,7,8,9-octahydro-2H-pyrazino[1′,2′:4,5][1,4]oxazino[2,3-e]isoindol-2-yl)piperidine-2,6-dione], the DC50 on ER was in the range of 10 to 100 nM. Further, the IC50 in assay [1] was under 1 nM.
